Measurements from ChEMBL document CHEMBL1201862, “PubChem BioAssay data set” (2004).
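Tested at 5 concentrations; 48 h exposure; 96-well plates; endpoints linearly interpolated, else capped at highest concentration. Here, GI50 denotes the concentration required for 50% inhibition of growth.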 The source made the active and inactive calls. Cut-off read from the data, not from the text of the source: active = GI50 up to about 1.1 µM and inactive = higher.

Assays:
Test in all cases: NCI-60 cell line screen, 48 h
T47D = tested on: T47D
IGROV-1 = tested on: IGROV-1
Malme-3M = tested on: Malme-3M
SF-295 = tested on: SF-295
OVCAR-4 = tested on: OVCAR-4
NCI-H23 = tested on: NCI-H23
PC-3 = tested on: PC-3
MOLT-4 = tested on: MOLT-4
SK-OV-3 = tested on: SK-OV-3
EKVX = tested on: EKVX
MDA-MB-435 = tested on: MDA-MB-435
UO-31 = tested on: UO-31
COLO 205 = tested on: COLO 205
RXF 393 = tested on: RXF 393
SF-539 = tested on: SF-539
CAKI-1 = tested on: CAKI-1
HOP-62 = tested on: HOP-62
NCI-H460 = tested on: NCI-H460
MDA-N = tested on: MDA-N
NCI/ADR-RES = tested on: NCI/ADR-RES
UACC-62 = tested on: UACC-62
786-0 = tested on: 786-0
A549 = tested on: A549
HT-29 = tested on: HT-29
ACHN = tested on: ACHN
HCT-116 = tested on: HCT-116
SNB-75 = tested on: SNB-75
NCI-H522 = tested on: NCI-H522
CCRF-CEM = tested on: CCRF-CEM
SK-MEL-2 = tested on: SK-MEL-2
MDA-MB-231 = tested on: MDA-MB-231
M14 = tested on: M14
KM12 = tested on: KM12
HCC 2998 = tested on: HCC 2998
U-251 = tested on: U-251
LOX IMVI = tested on: LOX IMVI
OVCAR-3 = tested on: OVCAR-3
HOP-92 = tested on: HOP-92
SW-620 = tested on: SW-620
HCT-15 = tested on: HCT-15
RPMI-8226 = tested on: RPMI-8226
OVCAR-8 = tested on: OVCAR-8
TK-10 = tested on: TK-10
K562 = tested on: K562
SF-268 = tested on: SF-268
MCF7 = tested on: MCF7
SN12C = tested on: SN12C
OVCAR-5 = tested on: OVCAR-5
SK-MEL-5 = tested on: SK-MEL-5
SK-MEL-28 = tested on: SK-MEL-28
BT-549 = tested on: BT-549
SNB-19 = tested on: SNB-19
Hs-578T = tested on: Hs-578T
DU-145 = tested on: DU-145
UACC-257 = tested on: UACC-257
NCI-H226 = tested on: NCI-H226
HL-60 = tested on: HL-60
A498 = tested on: A498
SR = tested on: SR

Measured: GI50

O=C(Nc1ccc(N2C(=O)CSC2c2ccccc2O)cc1)c1ccc(N2C(=O)CSC2c2ccccc2O)cc1 (centres undefined)
> 100 µM: HCT-15
inactive: T47D 43.3 µM | IGROV-1 > 100 µM | Malme-3M 98.4 µM | SF-295 34.4 µM | OVCAR-4 67.6 µM | NCI-H23 64.4 µM | PC-3 43.3 µM | MOLT-4 > 100 µM | SK-OV-3 23 µM | EKVX 79.4 µM | MDA-MB-435 61 µM | UO-31 54.5 µM | COLO 205 > 100 µM | RXF 393 55.6 µM | SF-539 69.7 µM | CAKI-1 > 100 µM | HOP-62 32.4 µM | NCI-H460 83.8 µM | MDA-N 83.8 µM | NCI/ADR-RES > 100 µM | UACC-62 29.1 µM | 786-0 43.7 µM | A549 40.7 µM | HT-29 > 100 µM | ACHN 35.6 µM | HCT-116 88.3 µM | SNB-75 27.7 µM | NCI-H522 55.7 µM | CCRF-CEM > 100 µM | SK-MEL-2 84.7 µM | MDA-MB-231 44 µM | M14 23.6 µM | KM12 > 100 µM | HCC 2998 > 100 µM | U-251 34 µM | LOX IMVI 75.3 µM | OVCAR-3 84.7 µM | HOP-92 26.7 µM | SW-620 > 100 µM | RPMI-8226 57.9 µM | OVCAR-8 51.3 µM | TK-10 74 µM | K562 > 100 µM | SF-268 95.1 µM | MCF7 46.3 µM | SN12C > 100 µM | OVCAR-5 83.6 µM | SK-MEL-5 77.4 µM | SK-MEL-28 39.1 µM | BT-549 87.1 µM | SNB-19 31.4 µM | Hs-578T 71.9 µM | DU-145 > 100 µM | UACC-257 > 100 µM

CC1(C)CC(=O)C(CC(C(=O)C(=O)Nc2cc(C(F)(F)F)ccc2Cl)C(=O)c2ccco2)C(=O)C1 (centres undefined)
inactive: T47D > 100 µM | IGROV-1 > 100 µM | Malme-3M > 100 µM | SF-295 > 100 µM | OVCAR-4 > 100 µM | NCI-H23 > 100 µM | PC-3 > 100 µM | MOLT-4 > 100 µM | SK-OV-3 > 100 µM | EKVX > 100 µM | MDA-MB-435 > 100 µM | UO-31 > 100 µM | COLO 205 > 100 µM | SF-539 > 100 µM | CAKI-1 > 100 µM | NCI-H460 > 100 µM | MDA-N > 100 µM | NCI/ADR-RES > 100 µM | UACC-62 > 100 µM | 786-0 > 100 µM | A549 > 100 µM | HT-29 > 100 µM | NCI-H226 > 100 µM | ACHN > 100 µM | HCT-116 > 100 µM | HL-60 > 100 µM | NCI-H522 > 100 µM | CCRF-CEM > 100 µM | SK-MEL-2 > 100 µM | MDA-MB-231 > 100 µM | M14 > 100 µM | KM12 > 100 µM | HCC 2998 > 100 µM | U-251 > 100 µM | LOX IMVI > 100 µM | OVCAR-3 > 100 µM | HOP-92 > 100 µM | SW-620 > 100 µM | RPMI-8226 > 100 µM | OVCAR-8 > 100 µM | TK-10 > 100 µM | K562 > 100 µM | SF-268 > 100 µM | MCF7 > 100 µM | SN12C > 100 µM | OVCAR-5 > 100 µM | A498 46.9 µM | SK-MEL-5 > 100 µM | SK-MEL-28 > 100 µM | BT-549 > 100 µM | SNB-19 > 100 µM | Hs-578T > 100 µM | DU-145 > 100 µM | UACC-257 > 100 µM
> 100 µM: HCT-15

CC(C)(C)OC(=O)N[C@@H](Cc1ccccc1)C(=O)N1CC[C@@H](C(=O)N2[C@H]3CC4CC[C@@]3(CS2(=O)=O)C4(C)C)N1
56.9 µM: HCT-15
active: T47D 0.752 µM
inactive: OVCAR-4 68.1 µM | NCI-H23 50.6 µM | PC-3 45.7 µM | MOLT-4 > 100 µM | SK-OV-3 > 100 µM | MDA-MB-435 51.9 µM | COLO 205 46.9 µM | RXF 393 > 100 µM | CAKI-1 > 100 µM | HOP-62 78.3 µM | NCI-H460 39.4 µM | MDA-N 39.3 µM | NCI/ADR-RES 62.5 µM | UACC-62 52.4 µM | 786-0 > 100 µM | A549 43.8 µM | HT-29 97.3 µM | NCI-H226 > 100 µM | ACHN 64.9 µM | HCT-116 47.3 µM | SNB-75 39.9 µM | HL-60 75.5 µM | CCRF-CEM 51.3 µM | SK-MEL-2 61.7 µM | MDA-MB-231 48 µM | SR > 100 µM | M14 74 µM | KM12 79.1 µM | HCC 2998 79.3 µM | U-251 > 100 µM | LOX IMVI 75.9 µM | OVCAR-3 51.6 µM | HOP-92 > 100 µM | SW-620 62.8 µM | RPMI-8226 82.6 µM | OVCAR-8 59.3 µM | K562 > 100 µM | SF-268 > 100 µM | SN12C 59 µM | OVCAR-5 > 100 µM | A498 > 100 µM | SK-MEL-5 24.6 µM | SK-MEL-28 > 100 µM | BT-549 63.5 µM | SNB-19 93.8 µM | Hs-578T 46.8 µM | DU-145 79.6 µM | UACC-257 > 100 µM

CC(C)(C)OC(=O)CN1CCNCCN(CC(=O)OC(C)(C)C)CC1
> 100 µM: HCT-15
inactive: T47D > 100 µM | IGROV-1 > 100 µM | SF-295 > 100 µM | OVCAR-4 > 100 µM | PC-3 > 100 µM | MOLT-4 > 100 µM | SK-OV-3 > 100 µM | EKVX > 100 µM | UO-31 > 100 µM | COLO 205 > 100 µM | SF-539 > 100 µM | CAKI-1 > 100 µM | HOP-62 > 100 µM | NCI-H460 > 100 µM | MDA-N > 100 µM | NCI/ADR-RES > 100 µM | UACC-62 > 100 µM | 786-0 > 100 µM | A549 > 100 µM | HT-29 44.3 µM | NCI-H226 > 100 µM | ACHN > 100 µM | HCT-116 > 100 µM | SNB-75 12.8 µM | HL-60 19.2 µM | NCI-H522 56.9 µM | CCRF-CEM > 100 µM | SK-MEL-2 > 100 µM | MDA-MB-231 > 100 µM | SR > 100 µM | M14 > 100 µM | KM12 > 100 µM | HCC 2998 40.7 µM | LOX IMVI > 100 µM | OVCAR-3 > 100 µM | HOP-92 > 100 µM | RPMI-8226 > 100 µM | OVCAR-8 > 100 µM | TK-10 > 100 µM | K562 54.5 µM | MCF7 > 100 µM | SN12C > 100 µM | OVCAR-5 > 100 µM | A498 > 100 µM | SK-MEL-5 > 100 µM | BT-549 > 100 µM | SNB-19 > 100 µM | Hs-578T > 100 µM | DU-145 > 100 µM | UACC-257 > 100 µM
active: Malme-3M 0.731 µM

CCOC(=O)c1c[nH]c(C(=O)C=[N+]=[N-])c1C1CCN(CC)C1=S (centres undefined)
inactive: T47D > 100 µM | IGROV-1 > 100 µM | Malme-3M > 100 µM | SF-295 > 100 µM | OVCAR-4 > 100 µM | NCI-H23 99.8 µM | PC-3 > 100 µM | MOLT-4 > 100 µM | SK-OV-3 > 100 µM | EKVX > 100 µM | MDA-MB-435 > 100 µM | UO-31 > 100 µM | COLO 205 63.5 µM | RXF 393 > 100 µM | CAKI-1 > 100 µM | HOP-62 > 100 µM | NCI-H460 93.3 µM | MDA-N > 100 µM | NCI/ADR-RES > 100 µM | UACC-62 > 100 µM | 786-0 > 100 µM | A549 > 100 µM | HT-29 > 100 µM | ACHN > 100 µM | HCT-116 > 100 µM | SNB-75 > 100 µM | NCI-H522 > 100 µM | SK-MEL-2 > 100 µM | MDA-MB-231 > 100 µM | M14 > 100 µM | KM12 > 100 µM | HCC 2998 > 100 µM | U-251 > 100 µM | OVCAR-3 94 µM | HOP-92 > 100 µM | SW-620 > 100 µM | RPMI-8226 > 100 µM | OVCAR-8 > 100 µM | TK-10 > 100 µM | K562 > 100 µM | SF-268 > 100 µM | MCF7 > 100 µM | OVCAR-5 > 100 µM | A498 > 100 µM | SK-MEL-5 > 100 µM | SK-MEL-28 > 100 µM | BT-549 > 100 µM | SNB-19 > 100 µM | Hs-578T > 100 µM | DU-145 > 100 µM | UACC-257 > 100 µM
> 100 µM: HCT-15
